Assays:
breinlia booliati [1] = experiment: Time taken for In vitro anti-filarial activity to immobilize breinlia booliati (Microfilaria); assay type: functional
breinlia booliati [2] = experiment: Time taken for In vitro anti-filarial activity to immobilize breinlia booliati (adult worms); assay type: functional
Mus musculus [3] = species: Mus musculus; experiment: Minimum effective dose which on 5th day reduced the mean infection level to one-fiftieth of the control; assay type: functional
Mus musculus [4] = species: Mus musculus; experiment: Lethal dose that killed mice in 48 hr; assay type: toxicity, organism-based; conditions: in vivo
[5] = Ratio of activity of quinine versus compound against Plasmodium berghei in mice; assay type: functional
Mus musculus [6] = species: Mus musculus; experiment: Minimum effective dose which on 5th day reduced the mean infection level to one-fiftieth of the control; No activity observed at a dose range of 0.05-2.0 mg (HCl) per 20 g

SMILES	TIME (breinlia booliati [1]) [h]	TIME (breinlia booliati [2]) [h]	MED (Mus musculus [3])	LD app (Mus musculus [4]) [mM/kg]	Ratio [5]	MED (Mus musculus [6])
CCN(CC)Cc1cc(Nc2ccnc3cc(Cl)ccc23)ccc1O.Cl	3	3	0.077 (mg of base) 20g-1	0.32	15.8	–
CCN(CC)C(=O)N(CC)Cc1cc(Nc2ccnc3cc(Cl)ccc23)ccc1OC	8	8	–	–	–	No activity
CCN(CC)C(=O)N1CCN(Cc2cc(Nc3ccnc4cc(Cl)ccc34)ccc2O)CC1	6	3	0.43 (mg of base) 20g-1	0.37	2.8	–
CN1CCN(C(=O)NCc2cc(Nc3ccnc4cc(Cl)ccc34)ccc2O)CC1	7	5	0.043 (mg of base) 20g-1	0.66	28.4	–
CCN(CC)C(=O)NCc1cc(Nc2ccnc3cc(Cl)ccc23)ccc1O	8	8	–	–	–	No activity
CCN(Cc1cc(Nc2ccnc3cc(Cl)ccc23)ccc1O)C(=O)N1CCN(C)CC1	3	3	0.21 (mg of base) 20g-1	0.76	5.8	–
CCN(CC)C(=O)N1CCN(C)CC1 [DIETHYLCARBAMAZINE]	4	2	–	1.34	–	–
CCN(CC)C(=O)NCc1cc(Nc2ccnc3cc(Cl)ccc23)ccc1OC	8	8	–	–	–	No activity
CCN(Cc1cc(Nc2ccnc3cc(Cl)ccc23)ccc1OC)C(=O)N1CCN(C)CC1	3	3	0.43 (mg of base) 20g-1	0.63	2.8	–
CCN(CC)C(=O)N1CCN(Cc2cc(Nc3ccnc4cc(Cl)ccc34)ccc2OC)CC1	6	3	0.43 (mg of base) 20g-1	0.41	2.8	–
COc1ccc(Nc2ccnc3cc(Cl)ccc23)cc1CNC(=O)N1CCN(C)CC1	7	5	0.43 (mg of base) 20g-1	0.68	2.8	–
CCN(CC)C(=O)N(CC)Cc1cc(Nc2ccnc3cc(Cl)ccc23)ccc1O	8	8	–	–	–	No activity
